Where “and” joins values, the source holds several entries; their conditions need not be identical. Equal entries are not always repeated.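 1) Cells in 96-well plates. 2) Compound, 48 h, 5 concentrations. 3) Linear interpolation between surrounding doses. 4) Unreached endpoint = highest concentration. GI50: concentration for 50% inhibition of growth. The concentration for full growth arrest is given as TGI.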 Some results are limits rather than exact numbers.

Test systems include HL-60(TB) leukemia; SK-MEL-28 melanoma; HOP-62 NSCLC; NCI/ADR-RES ovarian; HCC-2998 colon; HCT-15 colon.
Common to all, as to assay: DTP human tumour cell line panel, 48 h

As for `COc1ccc(C2CC(c3ccc(Nc4ccnc5cc(Cl)ccc45)cc3)=NN2C=O)cc1` (configuration not stated), the GI50 in the assay with HL-60(TB) leukemia was 2.23 µM; in the assay with SK-MEL-28 melanoma it was 20.9 µM; in the assay on HOP-62 NSCLC, 43.7 µM; in the assay on NCI/ADR-RES ovarian it was 7.05 µM; with HCC-2998 colon it was 18.1 µM; in the assay with HCT-15 colon it was 2.97 µM. Also, the TGI in the assay on HL-60(TB) leukemia is 5.16 µM; in the assay on SK-MEL-28 melanoma it was 90.9 µM; in the assay with HOP-62 NSCLC, above 100 µM; in the assay with NCI/ADR-RES ovarian, above 100 µM; with HCC-2998 colon, above 100 µM; in the assay with HCT-15 colon, above 100 µM.

With `CCOC(=O)C1=C(C)NC(=O)NC1CN1C(=O)c2ccccc2C1=O` (configuration not stated), the GI50 in the assay on HL-60(TB) leukemia, with SK-MEL-28 melanoma, in the assay with HOP-62 NSCLC, with NCI/ADR-RES ovarian, with HCC-2998 colon and in the assay with HCT-15 colon was above 100 µM in each case. Moreover, the total growth inhibition concentration (TGI) with HL-60(TB) leukemia, in the assay with SK-MEL-28 melanoma, in the assay on HOP-62 NSCLC, in the assay on NCI/ADR-RES ovarian, in the assay on HCC-2998 colon and with HCT-15 colon was above 100 µM throughout.

As to `COc1ccc2c3c1OC1C(OC)(OC)C=C[C@@]4(Br)[C@@H](C2)N(CC2CC2)CC[C@]314` (some centres not stated), the TGI in the assay with HL-60(TB) leukemia, in the assay on SK-MEL-28 melanoma, in the assay with HOP-62 NSCLC, in the assay on NCI/ADR-RES ovarian, in the assay with HCC-2998 colon and in the assay on HCT-15 colon was above 100 µM in each case.

With `Oc1ccc2c3c1OC1c4[nH]ncc4C[C@H]4[C@@H](C2)N(CC2CC2)CC[C@]314` (some centres not stated), the TGI with HL-60(TB) leukemia, in the assay on SK-MEL-28 melanoma, with HOP-62 NSCLC, with NCI/ADR-RES ovarian, in the assay on HCC-2998 colon and with HCT-15 colon was above 100 µM in each case.

Regarding `O=C(O)c1cc(=O)cc(C(=O)O)o1`, the GI50 in the assay with HL-60(TB) leukemia, in the assay on SK-MEL-28 melanoma, in the assay on HOP-62 NSCLC, with NCI/ADR-RES ovarian, in the assay with HCC-2998 colon and in the assay with HCT-15 colon was above 100 µM each time. For the same molecule, the TGI with HL-60(TB) leukemia, in the assay on SK-MEL-28 melanoma, with HOP-62 NSCLC, with NCI/ADR-RES ovarian, in the assay with HCC-2998 colon and in the assay with HCT-15 colon was above 100 µM in each case.

Turning to `O=C(C=P(c1ccccc1)(c1ccccc1)c1ccccc1)CCl`, the GI50 with HL-60(TB) leukemia is 1.31 µM; in the assay on SK-MEL-28 melanoma, 1.54 µM; with HOP-62 NSCLC it was 2.62 µM; in the assay on NCI/ADR-RES ovarian, 1.86 µM; in the assay with HCC-2998 colon, 1.84 µM; in the assay on HCT-15 colon, 0.881 µM. The TGI with HL-60(TB) leukemia worked out at 6.12 µM; in the assay with SK-MEL-28 melanoma, 3.55 µM; with HOP-62 NSCLC, 7.93 µM; with NCI/ADR-RES ovarian, 10.5 µM; with HCC-2998 colon, 3.7 µM; with HCT-15 colon, 4.21 µM.

With `CN(C)CCCSc1ccccc1NC1=C(Cl)C(=O)C(Nc2ccccc2SCCCN(C)C)=C(Cl)C1=O`, the GI50 in the assay with HL-60(TB) leukemia is 0.69 µM; in the assay with SK-MEL-28 melanoma, 1.67 µM; with HOP-62 NSCLC, 3.59 µM; in the assay with NCI/ADR-RES ovarian, 3.21 µM; in the assay with HCC-2998 colon, 2.11 µM; in the assay on HCT-15 colon, 1.69 µM. Moreover, the concentration for total growth inhibition (TGI) in the assay on HL-60(TB) leukemia is 2.91 µM; in the assay on SK-MEL-28 melanoma, 3.12 µM; with HOP-62 NSCLC it was 10.6 µM; with NCI/ADR-RES ovarian, 18.7 µM; in the assay on HCC-2998 colon, 5.49 µM; in the assay on HCT-15 colon, 3.32 µM.

In the case of `COCCOC1=CC(=O)c2c(O)ccc(O)c2C1=O`, the GI50 is 0.305 µM in the assay with HL-60(TB) leukemia; 1.75 µM in the assay with SK-MEL-28 melanoma; 1.9 µM in the assay with HOP-62 NSCLC; 1.7 µM with HCC-2998 colon; 1.6 µM in the assay on HCT-15 colon. Further, the TGI is 2.26 µM and 1.04 µM in the assay with HL-60(TB) leukemia; 2.9 µM and 3.37 µM with SK-MEL-28 melanoma; 1.8 µM and 3.31 µM in the assay on HOP-62 NSCLC; 7.41 µM and 5.63 µM in the assay with NCI/ADR-RES ovarian; 4.03 µM and 3.12 µM in the assay on HCC-2998 colon; 2.62 µM and 3.38 µM with HCT-15 colon.

For the molecule `N#Cc1c(NC(=O)c2ccc(F)cc2)sc2c1CCCC2`, the GI50 in the assay on HL-60(TB) leukemia, in the assay on SK-MEL-28 melanoma, with HOP-62 NSCLC, in the assay with NCI/ADR-RES ovarian, in the assay with HCC-2998 colon and in the assay on HCT-15 colon was above 25 µM each time. Also, the TGI with HL-60(TB) leukemia, in the assay with SK-MEL-28 melanoma, in the assay with HOP-62 NSCLC, with NCI/ADR-RES ovarian, in the assay on HCC-2998 colon and with HCT-15 colon was above 25 µM throughout.

Take `Cc1ccc2cccc(OC(=O)Nc3cccc(C(F)(F)F)c3)c2n1`: the GI50 was 5.41 µM in the assay on HL-60(TB) leukemia; 4.34 µM in the assay on SK-MEL-28 melanoma; 5.83 µM with HOP-62 NSCLC; 3.96 µM with NCI/ADR-RES ovarian; 5.29 µM in the assay on HCC-2998 colon; 3.14 µM in the assay with HCT-15 colon. For the same molecule, the TGI in the assay with HL-60(TB) leukemia was 38.4 µM; with SK-MEL-28 melanoma, 16.3 µM; in the assay with HOP-62 NSCLC, 18.6 µM; with NCI/ADR-RES ovarian, 33.3 µM; in the assay with HCC-2998 colon, 18.5 µM; in the assay on HCT-15 colon it was 11.3 µM.

Consider `COc1c(/C=C/C=O)cc2c(c1OC)OCO2`, for which the TGI with HL-60(TB) leukemia was 53.1 µM; with SK-MEL-28 melanoma, above 100 µM; with HOP-62 NSCLC, 73.7 µM; with NCI/ADR-RES ovarian, above 100 µM; in the assay with HCC-2998 colon, 78.5 µM; with HCT-15 colon, 40.2 µM.

For the molecule `COc1ccc(C(=NN=C(N)N)c2ccc(OC)cc2)cc1`, the GI50 was 2.53 µM in the assay with HL-60(TB) leukemia; 5.7 µM in the assay with SK-MEL-28 melanoma; 3.9 µM in the assay with HOP-62 NSCLC; 21.1 µM in the assay with NCI/ADR-RES ovarian; 3.53 µM with HCC-2998 colon; 4.73 µM in the assay with HCT-15 colon. Also, the concentration for total growth inhibition (TGI) came out at 8.48 µM with HL-60(TB) leukemia; 19.1 µM with SK-MEL-28 melanoma; 15.5 µM with HOP-62 NSCLC; 75.6 µM in the assay with NCI/ADR-RES ovarian; 14.4 µM in the assay with HCC-2998 colon; 19.9 µM in the assay with HCT-15 colon.

As to `COc1cc(/C=C/c2cc(/C=C/c3ccc(O)c(OC)c3)n(C(=O)Nc3ccccc3Cl)n2)ccc1O`, the GI50 with HL-60(TB) leukemia was 0.282 µM; in the assay on SK-MEL-28 melanoma it was 0.519 µM; in the assay with HOP-62 NSCLC, 0.471 µM; in the assay with NCI/ADR-RES ovarian, 0.247 µM; with HCC-2998 colon it was 0.725 µM; in the assay on HCT-15 colon it was 0.332 µM. For the same molecule, the TGI with HL-60(TB) leukemia worked out at 0.721 µM; in the assay on SK-MEL-28 melanoma it was 4.11 µM; in the assay with HOP-62 NSCLC it was 1.78 µM; in the assay on NCI/ADR-RES ovarian, 7.91 µM; in the assay with HCC-2998 colon, 5.72 µM; in the assay with HCT-15 colon, 4.15 µM.

What is called GI50 is the concentration that inhibits growth by half. One may read the TGI as the concentration at which net growth stops.
